Results published in the supplement of paper PMC8671470.

These compounds were tested on myeloid leukemia patient primary cells Pat.14 (assay: cell viability (% survival relative to DMSO control); higher = less cytotoxic). Details: 1000 nM; 72 h.
Outline: (§1)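 Thawed mononuclear cells from AML or CML patients were purified on Ficoll and cultured for 72 h in RPMI 1640 with 10% FBS, at 10,000 cells/well, on 384-well plates carrying 70 pre-printed compounds at 1–10,000 nM in five tenfold steps, in duplicate. Viability came from CellTiter-Glo, normalised against DMSO and against 10 μM proteasome inhibitor. Any area under the curve given was derived from log-logistic curve fits in the drc and PharmacoGx R packages, and these fits had four parameters.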
In the case of `O=C(O)C1=CC(=C(c2ccc(O)c(C(=O)O)c2)c2ccc(O)c(C(=O)O)c2)C=CC1=O` [Aurintricarboxylic acid], the cell viability is reported as greater than 100%.
For `COC(=O)[C@]12CCC(C)(C)C[C@H]1[C@H]1C(=O)C=C3[C@@]4(C)C=C(C#N)C(=O)C(C)(C)[C@@H]4CC[C@@]3(C)[C@]1(C)CC2` [Bardoxolone methyl], the cell viability was 2.03%.
For `Cc1c(-c2ccc(-c3ccccc3F)cc2)nc2ccc(F)cc2c1C(=O)O` [Brequinar], the cell viability was 65.6%.
In the case of `Nc1nc(Cl)nc2c1ncn2[C@H]1C[C@H](O)[C@@H](CO)O1` [Cladribine], the cell viability is reported as 3.16%.
With `O=C1c2cc([N+](=O)[O-])ccc2-n2c1nc1ccccc1c2=O` [GNF-Pf-3777] the cell viability was 85.7%.
Compound `C=C(C)[C@H]1Cc2c(ccc3c2O[C@@H]2COc4cc(OC)c(OC)cc4[C@@H]2C3=O)O1` [Rotenone] has a cell viability of 30.8%.
With `Oc1ccc(Nc2nc(-c3ccc(Cl)cc3)cs2)cc1` [SKI II] the cell viability was 29.1%.
Compound `CCC(=O)N1CCN(c2ccc(-n3c(=O)ccc4cnc5ccc(-c6cnc7ccccc7c6)cc5c43)cc2C(F)(F)F)CC1` [Torin1] has a cell viability of 38.1%.

Same assay, conditions: 10000 nM; 72 h
`O=C(C1CC1)N1CC[C@@H](C=C2NNC(=O)N2c2ccc(-c3ccc4occc4c3)cc2)C1` gave a cell viability of 79.5%.
For `C[C@H](NC(=O)c1sccc1OCc1ccc(Cl)cc1)c1ccccc1`, the cell viability was 1.72%.
In the case of `O=C(O)C1=CC(=C(c2ccc(O)c(C(=O)O)c2)c2ccc(O)c(C(=O)O)c2)C=CC1=O` [Aurintricarboxylic acid], the cell viability is reported as 92.1%.
With `COC(=O)[C@]12CCC(C)(C)C[C@H]1[C@H]1C(=O)C=C3[C@@]4(C)C=C(C#N)C(=O)C(C)(C)[C@@H]4CC[C@@]3(C)[C@]1(C)CC2` [Bardoxolone methyl] the cell viability was 25.8%.
In the case of `Cc1c(-c2ccc(-c3ccccc3F)cc2)nc2ccc(F)cc2c1C(=O)O` [Brequinar], the cell viability is reported as 32.3%.
`Nc1nc(Cl)nc2c1ncn2[C@H]1C[C@H](O)[C@@H](CO)O1` [Cladribine] gave a cell viability of 0.937%.
`O=C1c2cc([N+](=O)[O-])ccc2-n2c1nc1ccccc1c2=O` [GNF-Pf-3777] showed a cell viability of 54.2%.
In the case of `C=C(C)[C@H]1Cc2c(ccc3c2O[C@@H]2COc4cc(OC)c(OC)cc4[C@@H]2C3=O)O1` [Rotenone], the cell viability is reported as 10.7%.
`Oc1ccc(Nc2nc(-c3ccc(Cl)cc3)cs2)cc1` [SKI II] showed a cell viability of 6.09%.
In the case of `CCC(=O)N1CCN(c2ccc(-n3c(=O)ccc4cnc5ccc(-c6cnc7ccccc7c6)cc5c43)cc2C(F)(F)F)CC1` [Torin1], the cell viability is reported as 54.1%.

Each compound was assayed on myeloid leukemia patient primary cells Pat.15 in the same assay as above. Details: 1 nM; 72 h.
Outline: as §1
`O=C(C1CC1)N1CC[C@@H](C=C2NNC(=O)N2c2ccc(-c3ccc4occc4c3)cc2)C1` gave a cell viability of 89.4%.
`C[C@H](NC(=O)c1sccc1OCc1ccc(Cl)cc1)c1ccccc1` showed a cell viability of 92.7%.
Work on `O=C(O)C1=CC(=C(c2ccc(O)c(C(=O)O)c2)c2ccc(O)c(C(=O)O)c2)C=CC1=O` [Aurintricarboxylic acid] yielded a cell viability of 96.4%.
In the case of `COC(=O)[C@]12CCC(C)(C)C[C@H]1[C@H]1C(=O)C=C3[C@@]4(C)C=C(C#N)C(=O)C(C)(C)[C@@H]4CC[C@@]3(C)[C@]1(C)CC2` [Bardoxolone methyl], the cell viability is reported as 95.2%.
`Cc1c(-c2ccc(-c3ccccc3F)cc2)nc2ccc(F)cc2c1C(=O)O` [Brequinar] gave a cell viability of 91.1%.
In the case of `Nc1nc(Cl)nc2c1ncn2[C@H]1C[C@H](O)[C@@H](CO)O1` [Cladribine], the cell viability is reported as 95.4%.
With `O=C1c2cc([N+](=O)[O-])ccc2-n2c1nc1ccccc1c2=O` [GNF-Pf-3777] the cell viability was 90.6%.
Compound `C=C(C)[C@H]1Cc2c(ccc3c2O[C@@H]2COc4cc(OC)c(OC)cc4[C@@H]2C3=O)O1` [Rotenone] has a cell viability of 44.9%.
In the case of `Oc1ccc(Nc2nc(-c3ccc(Cl)cc3)cs2)cc1` [SKI II], the cell viability is reported as 69.6%.
`CCC(=O)N1CCN(c2ccc(-n3c(=O)ccc4cnc5ccc(-c6cnc7ccccc7c6)cc5c43)cc2C(F)(F)F)CC1` [Torin1] showed a cell viability of 80.6%.

Same assay, conditions: 10 nM; 72 h
For `O=C(C1CC1)N1CC[C@@H](C=C2NNC(=O)N2c2ccc(-c3ccc4occc4c3)cc2)C1`, the cell viability was 95.2%.
`C[C@H](NC(=O)c1sccc1OCc1ccc(Cl)cc1)c1ccccc1` was tested, and the cell viability was 95.6%.
`O=C(O)C1=CC(=C(c2ccc(O)c(C(=O)O)c2)c2ccc(O)c(C(=O)O)c2)C=CC1=O` [Aurintricarboxylic acid] was tested, and the cell viability was greater than 100%.
With `COC(=O)[C@]12CCC(C)(C)C[C@H]1[C@H]1C(=O)C=C3[C@@]4(C)C=C(C#N)C(=O)C(C)(C)[C@@H]4CC[C@@]3(C)[C@]1(C)CC2` [Bardoxolone methyl] the cell viability was 79.4%.
`Cc1c(-c2ccc(-c3ccccc3F)cc2)nc2ccc(F)cc2c1C(=O)O` [Brequinar] showed a cell viability of 85.4%.
In the case of `Nc1nc(Cl)nc2c1ncn2[C@H]1C[C@H](O)[C@@H](CO)O1` [Cladribine], the cell viability is reported as 82.7%.
Compound `O=C1c2cc([N+](=O)[O-])ccc2-n2c1nc1ccccc1c2=O` [GNF-Pf-3777] has a cell viability of 89.1%.
`C=C(C)[C@H]1Cc2c(ccc3c2O[C@@H]2COc4cc(OC)c(OC)cc4[C@@H]2C3=O)O1` [Rotenone] was tested, and the cell viability was 66%.
`Oc1ccc(Nc2nc(-c3ccc(Cl)cc3)cs2)cc1` [SKI II] showed a cell viability of 93.3%.
With `CCC(=O)N1CCN(c2ccc(-n3c(=O)ccc4cnc5ccc(-c6cnc7ccccc7c6)cc5c43)cc2C(F)(F)F)CC1` [Torin1] the cell viability was 55.9%.

Same assay, conditions: 100 nM; 72 h
In the case of `O=C(C1CC1)N1CC[C@@H](C=C2NNC(=O)N2c2ccc(-c3ccc4occc4c3)cc2)C1`, the cell viability is reported as 95.7%.
Compound `C[C@H](NC(=O)c1sccc1OCc1ccc(Cl)cc1)c1ccccc1` has a cell viability of 97.7%.
`O=C(O)C1=CC(=C(c2ccc(O)c(C(=O)O)c2)c2ccc(O)c(C(=O)O)c2)C=CC1=O` [Aurintricarboxylic acid] gave a cell viability of 89.3%.
In the case of `COC(=O)[C@]12CCC(C)(C)C[C@H]1[C@H]1C(=O)C=C3[C@@]4(C)C=C(C#N)C(=O)C(C)(C)[C@@H]4CC[C@@]3(C)[C@]1(C)CC2` [Bardoxolone methyl], the cell viability is reported as 21.8%.
Compound `Cc1c(-c2ccc(-c3ccccc3F)cc2)nc2ccc(F)cc2c1C(=O)O` [Brequinar] has a cell viability of 87.7%.
`Nc1nc(Cl)nc2c1ncn2[C@H]1C[C@H](O)[C@@H](CO)O1` [Cladribine] showed a cell viability of 88.4%.
Compound `O=C1c2cc([N+](=O)[O-])ccc2-n2c1nc1ccccc1c2=O` [GNF-Pf-3777] has a cell viability of 96.8%.
In the case of `C=C(C)[C@H]1Cc2c(ccc3c2O[C@@H]2COc4cc(OC)c(OC)cc4[C@@H]2C3=O)O1` [Rotenone], the cell viability is reported as 43.9%.
For `Oc1ccc(Nc2nc(-c3ccc(Cl)cc3)cs2)cc1` [SKI II], the cell viability was 85.9%.
